Results published in paper PMC10657444, “Design and evaluation of tadpole-like conformational antimicrobial peptides” (Communications Biology, 2023).
≈ marks a conversion by molar mass, not a printed value. Where “and” joins values, the source holds several entries; their conditions need not be identical. Equal values may be shown once. Read-outs that look alike come from different tables or passages of the source. Residues, ends and D or L forms follow the SMILES beside them.

Experiments:
MTT cytotoxicity assay = type: cell-based, human; settings: human
Procedure: (§1) To determine the cytotoxicity of the peptides, we used the MTT (3-(4,5)-dimethylthiahiazo (-z-y1)-3,5-di-phenytetrazoliumromide) dye reduction assay against HEK293T cells. In brief, the 100 μL of cells in 96-well plate were incubated for 24 h at 37 °C, 5% CO2, and then peptide solutions (concentrations ranging from 100 to 0.39 μM) were added and further incubated for 72 h. MTT solution (5 mg/mL) was added and further incubated for 4 h. After incubation, the precipitated MTT formazan crystal was dissolved by addition of dimethyl sulfoxide (DMSO). […]

HEK293T cells = experiment: MTT cytotoxicity assay; type: cell-based, human; settings: for percent cell viability: HEK293T
Procedure: as §1

sheep red blood cells = experiment: Hemolysis assay
Procedure: To evaluate the hemolysis effects of peptides, red blood hemolysis was performed as described with minimum modifications. Sterile defibrated sheep blood was purchased from Guangzhou Hongquan Biotechnology Co., LTD. Blood cells were adjusted to 2 × 10^9 cells/mL in phosphate-buffered saline (PBS, pH 7.4). In total, 98 μL sheep red blood cell suspension was incubated with 2 μL of peptides at different concentrations ranging from 3.13 to 100 µM. After incubation for 1 h at 37 °C, the cells were centrifuged and the absorbance of the supernatant was measured at 450 nm. The value for “zero hemolysis” was determined using sterile PBS, while 100% hemolysis was established using 1.5% (v/v) Triton X-100. Hemolysis of testing sample was calculated as the percentage of Triton X-100-induced hemolysis.

MRSA USA 300 [1] = type: cell-based, Staphylococcus aureus
Procedure: (§2) The stability of peptides in different media was assessed using the MIC assay described above. Here, the stability of HT2 and RI-HT2 in serum, salt, and different pH were analyzed using methods previously described with some modifications. For serum stability, a solution of 10% or 20% fetal bovine serum (FBS) was made by diluting fetal bovine serum with phosphate buffer saline (PBS). HT2 and RI-HT2 were added for a final concentration of 160 µg/mL of peptide in the FBS solution, and incubation 2 h. Suspension containing no peptide was considered the negative control. The MIC of HT2 and RI-HT2 against MRSA USA 300 and K. pneumoniae ATCC 700603 were measured. For the acid stability assays, the peptides were incubated with different pH values of PBS (pH = 5.5 or 6.4) at 37 °C. These peptide mixtures were then serially diluted in a 96-well plate for the evaluation of antimicrobial activity against bacterial strains. Similarly, for salt stability, the peptides were assessed for their antimicrobial activity against MRSA USA 300 and K. pneumoniae ATCC 700603 in the presence of 150 mM NaCl.

[2] = test system: K. pneumoniae ATCC 700603; type: cell-based, Klebsiella pneumoniae
Procedure: as §2

MRSA USA 300 [3] = experiment: Time-kill assay; type: cell-based, Staphylococcus aureus
Procedure: Time-kill assays were done in tubes (in 1.5 mL of LB) and antibiotics at the 1 ×, 2 ×, 4 × and 8 × MIC. Tubes were inoculated (5 × 10^6 CFU/mL) with MRSA USA 300 and K. pneumoniae ATCC 700603 and incubated at 37 °C under shaking. Serial dilutions of the cultures were plated at each desired time point (0, 1, 3, 6, and 24 h), using a multichannel pipette as follows: in line 1 of a 96-well plate, 100 µL of bacterial suspension was added, while 90 µL of 0.9% sterile saline per well was added to the other lines. At selected time points, 100 µL of bacterial suspension was transferred from the time-kill assay plate to the first line. The wells were further diluted 1 in 10 (0.9% saline) for the appropriate number of dilutions and 10 μL of each dilution was spotted in duplicate onto MH agar plates, then incubated overnight at 37°C. The colonies in each spot were counted and used to calculate the number of viable CFU/mL remaining in the original culture by considering the dilution factors.

MRSA USA 300 [4] = experiment: Membrane depolarization assay, DiSC3(5); type: cell-based, Staphylococcus aureus
Procedure: MRSA USA 300 and K. pneumoniae ATCC 700603 were inoculated into 5 mL of LB and shaken at 37°C and 225 rpm to OD600 ≈ 0.5 (i.e., mid-logarithmic phase). Bacteria were collected by centrifugation at 8000 rpm for 5 min, and washed twice with assay buffer (5 mM HEPES, 20 mM glucose, 10 mM KCl, pH 7.2). Bacteria were resuspended in the assay buffer to OD595 ≈ 0.1. DiSC3(5) was added to the cells at final concentration of 0.3 µM, wrapped with aluminum foil, and incubated at 37°C, until a stable fluorescence was observed. Two microliter of compound or DMSO were transferred into 96-well black walled polystyrene plates, to which was added 98 µL per well of the dye-saturated bacterial cells to initiate the reaction. The final concentration of HT2 and RI-HT2 were 1 ×, 2 ×, 4 × and 8 × MIC. Plates were immediately read on an Envison at λex = 622 nm/ λem = 670 nm with a kinetic program (reading every 1 min for 10 min) until the maximal intensity achieved was observed.

[5] = HEK293T cells, OD450, cytotoxicity (Fig 2a), replicates

CC[C@H](C)[C@H](NC(=O)[C@H](CCCNC(=N)N)NC(=O)[C@H](CCCNC(=N)N)NC(=O)[C@H](CC(C)C)NC(=O)[C@H](Cc1ccccc1)NC(=O)[C@@H](N)CCCNC(=N)N)C(=O)N[C@@H](Cc1ccccc1)C(=O)N[C@@H](Cc1ccccc1)C(=O)N[C@@H](Cc1ccccc1)C(=O)N[C@@H](Cc1ccccc1)C(N)=O [HT2] (H-RFLRRIFFFF-NH2)
IC50 at 72 h (MTT cytotoxicity assay): > 100 µM
viability at 72 h, 0.39 µM (MTT cytotoxicity assay; HEK293T cells, HEK293T, 0.39 µM, read-out: OD450, cytotoxicity (Fig 2a), replicates): 96.7%
viability at 72 h, 6.25 µM (MTT cytotoxicity assay; HEK293T cells, HEK293T, 6.25 µM, read-out: OD450, cytotoxicity (Fig 2a), replicates): 99.2%
viability at 72 h, 12.5 µM (MTT cytotoxicity assay; HEK293T cells, HEK293T, 12.5 µM, read-out: OD450, cytotoxicity (Fig 2a), replicates): 92.8%
viability at 72 h, 0.39 µM (MTT cytotoxicity assay; [5]): 100%
viability at 72 h, 0.78 µM (MTT cytotoxicity assay; [5]): 94.2%
viability at 72 h, 1.57 µM (MTT cytotoxicity assay; [5]): 93.1%
viability at 72 h, 3.13 µM (MTT cytotoxicity assay; [5]): 95.4%
viability at 72 h, 25 µM (MTT cytotoxicity assay; [5]): 93.2%
viability at 72 h, 50 µM (MTT cytotoxicity assay; [5]): 98.4%
viability at 72 h, 100 µM (MTT cytotoxicity assay; [5]): 94.3%
toxicity / cytotoxicity against HEK293T cells (in words) (HEK293T cells): did not present
percent cell viability (HEK293T cells; 6.25 µM): 93.7324 and 94.5028
percent cell viability (HEK293T cells; 12.5 µM): 96.2979 and 92.259
OD450, hemolysis (Fig 2b), replicates (sheep red blood cells; 6.25 µM): 0.02117 (2×) and 0.02078 and 0.02133 (2×) and 0.02093
OD450, hemolysis (Fig 2b), replicates (sheep red blood cells; 12.5 µM): 0.02313 and 0.0233
HC10 (concentration inducing 10% hemolysis) (sheep red blood cells; red cells of sheep, 1 h): > 100.0 µM
MIC against MRSA USA 300 (MRSA USA 300 [1]; USA 300): 3.13 µM (≈ 4.53 µg/mL)
MIC against MRSA USA 300 (MRSA USA 300 [1]; USA 300, pH 5.5): 3.13 µM (≈ 4.53 µg/mL)
MIC against MRSA USA 300 (MRSA USA 300 [1]; USA 300, pH 6.4): 3.13 µM (≈ 4.53 µg/mL)
MIC against K. pneumoniae ATCC 700603 ([2]; 150 mM NaCl): 12.5 µM (≈ 18.1 µg/mL)
MIC against K. pneumoniae ATCC 700603 ([2]; 10% FBS): 6.25 µM (≈ 9.05 µg/mL)
MIC against K. pneumoniae ATCC 700603 ([2]; 20% FBS): 6.25 µM (≈ 9.05 µg/mL)
MIC against K. pneumoniae ATCC 700603 ([2]; Normal medium): 6.25 µM (≈ 9.05 µg/mL)
MIC against K. pneumoniae ATCC 700603 ([2]; pH 5.5): 12.5 µM (≈ 18.1 µg/mL)
MIC against K. pneumoniae ATCC 700603 ([2]; pH 6.4): 6.25 µM (≈ 9.05 µg/mL)
viable count, time-kill (MRSA USA 300 [3]; 2 × MIC, 0 h): 3600000 CFU/mL and 3500000 CFU/mL and 3200000 CFU/mL
viable count, time-kill (MRSA USA 300 [3]; 2 × MIC, 3 h): 3900000 CFU/mL and 3800000 CFU/mL
viable count, time-kill (MRSA USA 300 [3]; 2 × MIC, 6 h): 1700000 CFU/mL and 1900000 CFU/mL
viable count, time-kill (MRSA USA 300 [3]; 2 × MIC, 24 h): 910000 CFU/mL and 920000 CFU/mL and 890000 CFU/mL
viable count, time-kill (MRSA USA 300 [3]; 4 × MIC, 0 h): 3600000 CFU/mL and 3500000 CFU/mL and 3200000 CFU/mL
viable count, time-kill (MRSA USA 300 [3]; 4 × MIC, 1 h): 970000 CFU/mL and 1040000 CFU/mL and 1090000 CFU/mL
viable count, time-kill (MRSA USA 300 [3]; 4 × MIC, 3 h): 840000 CFU/mL and 870000 CFU/mL and 910000 CFU/mL
viable count, time-kill (MRSA USA 300 [3]; 4 × MIC, 6 h): 150000 CFU/mL and 160000 CFU/mL and 180000 CFU/mL
viable count, time-kill (MRSA USA 300 [3]; 4 × MIC, 24 h): 68000 CFU/mL and 71000 CFU/mL and 72000 CFU/mL
viable count, time-kill (MRSA USA 300 [3]; 8 × MIC, 0 h): 3600000 CFU/mL and 3500000 CFU/mL and 3200000 CFU/mL
viable count, time-kill (MRSA USA 300 [3]; 8 × MIC, 1 h): 990000 CFU/mL and 950000 CFU/mL and 910000 CFU/mL
viable count, time-kill (MRSA USA 300 [3]; 8 × MIC, 3 h): 580000 CFU/mL and 590000 CFU/mL
viable count, time-kill (MRSA USA 300 [3]; 8 × MIC, 6 h): 68000 CFU/mL and 70000 CFU/mL and 77000 CFU/mL
viable count, time-kill (MRSA USA 300 [3]; 8 × MIC, 24 h): 1000 CFU/mL and 1100 CFU/mL and 1400 CFU/mL
killing outcome (in words) (MRSA USA 300 [3]; 8 × MIC, after 24 h): cannot completely be killed
viable count, time-kill (MRSA USA 300 [3]; MIC, 0 h): 3600000 CFU/mL and 3500000 CFU/mL and 3200000 CFU/mL
viable count, time-kill (MRSA USA 300 [3]; MIC, 1 h): 4600000 CFU/mL and 4900000 CFU/mL
viable count, time-kill (MRSA USA 300 [3]; MIC, 3 h): 2100000 CFU/mL and 2000000 CFU/mL and 2300000 CFU/mL
viable count, time-kill (MRSA USA 300 [3]; MIC, 6 h): 2800000 CFU/mL and 2500000 CFU/mL and 1700000 CFU/mL
viable count, time-kill (MRSA USA 300 [3]; MIC, 24 h): 4100000000 CFU/mL and 4400000000 CFU/mL and 4900000000 CFU/mL
concentration at which DiSC3(5) fluorescence intensity changed significantly (MRSA USA 300 [4]): 4 × MIC
